Laboratory results from article PMC8072597, “Chromeno[3,4-b]xanthones as First-in-Class AChE and Aβ Aggregation Dual-Inhibitors” (International Journal of Molecular Sciences, 2021).
Where two headings read alike, the source gives them in different places.

Assays:
[1] = target: AChE (Electrophorus electricus—eeAChE) (Electrophorus electricus, UniProt O42275); test: biochemical; type: biochemical
Experimental: The synthesized compounds were evaluated for their inhibitory activity against AChE (Electrophorus electricus—eeAChE), using an adaptation of Ellman’s method. […] Initially, we performed a screening assay for the synthesized compounds to determine their enzyme inhibition at 20 μΜ as a threshold maximum concentration. […]
The inhibitory activity of the synthesized compounds towards AChE was evaluated spectrophotometrically by a 96-well microplate modified Ellman’s method. The enzyme (AChE) from Electrophorus electricus (eeAChE) stock solution was prepared as 7.4 U/mL in phosphate buffer, at pH 7. The stock solutions for the target compounds (0.1 M) were prepared in DMSO. The assay solution consisted of 0.0005 M 5,5′-dithiobis(2-nitrobenzoic acid) (DTNB), 0.013 U/mL eeAChE, and 0.0025 M acetylthiocholine iodide ATC (substrate for AChE) in 0.1 M phosphate buffer, at pH 7. The reaction mixture was prepared with 100 μL of the enzyme (eeAChE) and 50 μL of the test compound (or DMSO/water, not exceeding 0.2% of DMSO in the wells; i.e., blank samples). After 5 min of the pre-incubation period at 37 °C, 50 μL of acetylthiocholine iodide ATC and 50 μL of 5,5′-dithiobis(2-nitrobenzoic acid) (DTNB) were added to each well, thus initiating the enzymatic reaction. […] All compounds were tested at a screening concentration of 20 μM. The enzyme inhibition was calculated using the […] formula, where S and B are the enzyme activities with and without the test compound, respectively. […] All the reactions were performed in triplicate.

[2] = target: T1, HFIP-treated Aβ1-42 peptides (Homo sapiens, UniProt P05067); test: Aβ aggregation inhibition, thioflavin T (ThT)-based fluorimetric assay; type: biochemical; conditions: 20 μM compound; for inhibition at 20 µM: read-out: Aβ1-42 Aggregation (% Inhib. at 20 μM)
T1 construct: (HFIP)-treated Aβ1-42 peptides
T1 sequence (P05067 672-713): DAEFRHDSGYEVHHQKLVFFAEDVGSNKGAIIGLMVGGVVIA
Source text: The formation of amyloid aggregates is crucial for the path mechanism of AD. Therefore, we also decided to check the inhibitory activity of the synthesized compounds against the Aβ aggregation. To do so, we conducted a thioflavin T (ThT)-based fluorimetric assay to evaluate their ability to inhibit β-amyloid aggregation in vitro, using 1,1,1,3,3,3,-hexafluoro-2-propanol (HFIP)-treated Aβ1-42 peptides. This assay is based on the interaction between benzothiazole dye (ThT) and cross β-sheet quaternary structure of the amyloid protein. The intensity of fluorescence is weak when the dye is free and increases when the dye binds to β-sheet structures. Cumulative evidence has been shown that aromatic/hydrophobic areas and hydrogen bonding components (such as hydroxy or methoxy groups) along flat extended structures in small-molecule inhibitors as in chromeno[3,4-b]xanthones 4a-i, are important structural features for Aβ aggregation inhibitors. […] The ThT fluorescence data was recorded over 24 h and the obtained results were then plotted against time, as illustrated in Figure 5. Phenol red was used as the reference inhibitor for in vitro Aβ aggregation.
The inhibition of Aβ1-42 aggregation was determined through a ThT-based fluorimetric assay. Initially, the Aβ-peptides (1 mg) were pre-treated with 1,1,1,3,3,3,-hexafluoro-2-propanol (HFIP), kept at room temperature overnight, aliquoted, and dried under vacuum. The Aβ-peptides stock solutions (111 μM) were then prepared in ammonium hydroxide 0.1% (NH4OH) prior to the fluorescence assay. The stock solutions of all tested compounds (400 μM) were prepared in DMSO, while the stock solution of ThT (400 μM) was prepared in distilled water (1 mL). The Aβ aggregation was monitored using a standard 96-well plates, in the Synergy multi-mode reader (BioTek) and setting the excitation and emission wavelengths at 440 and 485 nm, respectively. Samples were prepared by diluting the stock solutions in PBS pH 7.4 to a final Aβ peptides concentration of 10 μM, 20 μM of ThT and 20 μM of the test compound (maximum final DMSO content: 5% v/v), with a final volume of 100 μL. The assays were performed at room temperature. The fluorescence data was recorded over 24 h with 5 s shaking (360 cpm) prior to each reading and then plotted against the time, using a nonlinear regression. Phenol red was used as the reference compound. Each condition was performed in triplicate, and values were averaged. The estimation of the inhibitory potency (%) was carried out by comparing fluorescence values at the plateau.

[3] = Table 3 (dual-target summary), mean ± SEM, n = 3, read-out: eeAChE (IC50 [μM])
[4] = Table 2, 10 μM Aβ, fluorescence at plateau over 24 h, <10 = no inhibition observed
[5] = Table 1, mean ± SEM, n = 3, each in triplicate, pH 7, 37 °C, read-out: eeAChE [IC50 (μM)]

Chain of AChE (Electrophorus electricus—eeAChE) (O42275 24-633): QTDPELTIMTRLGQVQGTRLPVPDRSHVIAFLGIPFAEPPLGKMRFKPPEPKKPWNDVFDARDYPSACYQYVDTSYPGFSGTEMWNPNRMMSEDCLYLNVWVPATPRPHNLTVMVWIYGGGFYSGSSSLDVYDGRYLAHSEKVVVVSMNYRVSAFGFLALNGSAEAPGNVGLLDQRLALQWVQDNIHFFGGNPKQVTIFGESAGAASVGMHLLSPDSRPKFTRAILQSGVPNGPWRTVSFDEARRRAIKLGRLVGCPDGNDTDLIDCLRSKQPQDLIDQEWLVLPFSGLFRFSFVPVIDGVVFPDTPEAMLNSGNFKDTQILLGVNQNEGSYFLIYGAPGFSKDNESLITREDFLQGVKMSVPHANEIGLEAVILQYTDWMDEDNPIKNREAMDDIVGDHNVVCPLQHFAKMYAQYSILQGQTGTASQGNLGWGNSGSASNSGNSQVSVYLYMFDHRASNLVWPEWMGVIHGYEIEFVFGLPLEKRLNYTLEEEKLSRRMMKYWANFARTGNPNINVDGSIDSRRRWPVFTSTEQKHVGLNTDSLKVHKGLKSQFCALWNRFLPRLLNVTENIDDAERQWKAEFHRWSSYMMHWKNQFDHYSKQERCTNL

Cc1ccc(C#CCOc2ccccc2/C=C/c2cc(=O)c3ccccc3o2)cc1 [Compound 10, (E)-2-(2-{[3-(4-methylphenyl)prop-2-yn-1-yl]oxy}styryl)-4H-chromen-4-one] gave an IC50 [1, 3] of 2.9 ± 0.1 µM, an inhibition at 20 µM [2, 4] of 66% and an inhibition at 20 µM ([2]; Table 3 (dual-target summary)) of 66 to 70%.
C#CCOc1ccc(Br)cc1/C=C/c1cc(=O)c2ccccc2o1 [Compound 3i] was tested, and the IC50 [1, 5] was greater than 20 µM.
O=c1c2ccccc2oc2cc3c(cc12)COc1ccccc1-3 [Compound 4a, 6H,8H-Chromeno[3,4-b]xanthen-8-one] showed an IC50 [1] of 2.1 ± 0.2 µM and an inhibition at 20 µM [2, 4] of less than 10%.
For “2,11,12-trimethoxy-6H,8H-chromeno[3,4-b]xanthen-8-one [Compound 4h]”, the IC50 [1, 5] was greater than 20 µM.
COc1ccc2c(=O)c3cc4c(cc3oc2c1)-c1ccccc1OC4 [Compound 4b] was tested, and the IC50 [1, 3] was 3.9 ± 0.1 µM, the inhibition at 20 µM [2, 4] was 70% and the inhibition at 20 µM ([2]; Table 3 (dual-target summary)) was 66 to 70%.
C#CCOc1ccccc1/C=C/c1cc(=O)c2ccccc2o1 [Compound 3a, (E)-2-[2-(prop-2-yn-1-yloxy)styryl]-4H-chromen-4-one] gave an IC50 [1] of 9.5 ± 0.3 µM and an inhibition at 20 µM [2, 4] of less than 10%.
With C#CCOc1cc(OC)ccc1/C=C/c1cc(=O)c2ccccc2o1 [Compound 3e, (E)-2-[4-methoxy-2-(prop-2-yn-1-yloxy)styryl]-4H-chromen-4-one] the IC50 [1, 5] was greater than 20 µM.
With “2,11-Dimethoxy-6H,8H-chromeno[3,4-b]xanthen-8-one [Compound 4f]” the IC50 [1, 5] was 4.8 ± 0.1 µM, the IC50 [1, 3] was 4.8 ± 0.1 µM and the “Aβ1-42 Aggregation (% Inhib. at 20 μM)” value [2, 4] was 52%. For the same compound, the “Aβ1-42 Aggregation (% Inhib. at 20 μM)” value ([2]; Table 3 (dual-target summary)) was 52%.
Work on N#CCOc1ccccc1/C=C/c1cc(=O)c2ccccc2o1 [Compound 6, (E)-2-{2-[2-(4-oxo-4H-chromen-2-yl)vinyl]phenoxy}acetonitrile] yielded an IC50 [1, 5] greater than 20 µM.
With “2,9-Dimethoxy-6H,8H-chromeno[3,4-b]xanthen-8-one [Compound 4g]” the IC50 [1, 5] was greater than 20 µM.
For O=c1c2ccccc2oc2cc3c(cc12)COc1ccc(Br)cc1-3 [Compound 4i, 2-bromo-6H,8H-chromeno[3,4-b]xanthen-8-one], the IC50 [1, 5] was greater than 20 µM.
Compound O=S1(=O)OC(c2ccc(O)cc2)(c2ccc(O)cc2)c2ccccc21 [Phenol Red, Phenol red, reference compound] has an inhibition at 20 µM [2, 4] of 20%.
COc1cccc2oc3cc4c(cc3c(=O)c12)COc1ccccc1-4 [Compound 4c, 9-Methoxy-6H,8H-chromeno[3,4-b]xanthen-8-one] gave an IC50 [1, 5] greater than 20 µM.
With “2-Methoxy-6H,8H-chromeno[3,4-b]xanthen-8-one [Compound 4e]” the IC50 [1, 5] was 6.9 ± 0.3 µM, the IC50 [1, 3] was 6.9 ± 0.3 µM and the “Aβ1-42 Aggregation (% Inhib. at 20 μM)” value [2, 4] was 61%. For the same compound, the “Aβ1-42 Aggregation (% Inhib. at 20 μM)” value ([2]; Table 3 (dual-target summary)) was 61%.
For C#CCOc1ccccc1/C=C/c1cc(=O)c2ccc(OC)c(OC)c2o1 [Compound 3d, (E)-7,8-dimethoxy-2-[2-(prop-2-yn-1-yloxy)styryl]-4H-chromen-4-one], the IC50 [1] was 2.4 ± 0.1 µM and the inhibition at 20 µM [2, 4] was less than 10%.
For C#CCOc1cc(OC)ccc1/C=C/c1cc(=O)c2ccc(OC)cc2o1 [Compound 3f, (E)-7-methoxy-2-[4-methoxy-2-(prop-2-yn-1-yloxy)styryl]-4H-chromen-4-one], the IC50 [1, 5] was greater than 20 µM and the inhibition at 20 µM [2, 4] was 48%.
C#CCN(CC#C)c1ccccc1/C=C/c1cc(=O)c2ccccc2o1 [Compound 8, (E)-2-{2-[di(prop-2-yn-1-yl)amino]styryl}-4H-chromen-4-one] showed an IC50 [1, 3] of 8.7 ± 0.2 µM, an inhibition at 20 µM [2, 4] of 18% and an inhibition at 20 µM ([2]; Table 3 (dual-target summary)) of 18%.
Work on COc1ccc2c(=O)c3cc4c(cc3oc2c1OC)-c1ccccc1OC4 [Compound 4d, 11,12-Dimethoxy-6H,8H-chromeno[3,4-b]xanthen-8-one] yielded an IC50 [1, 5] greater than 20 µM.
Work on C#CCOc1ccccc1/C=C/c1cc(=O)c2c(OC)cccc2o1 [Compound 3c, (E)-5-methoxy-2-[2-(prop-2-yn-1-yloxy)styryl]-4H-chromen-4-one] yielded an IC50 [1, 5] greater than 20 µM.
C#CCOc1ccccc1/C=C/c1cc(=O)c2ccc(OC)cc2o1 [Compound 3b, (E)-7-methoxy-2-[2-(prop-2-yn-1-yloxy)styryl]-4H-chromen-4-one] showed an IC50 [1, 5] greater than 20 µM and an inhibition at 20 µM [2, 4] of less than 10%.
“(E)-8-methoxy-3-[4-methoxy-2-(prop-2-yn-1-yloxy]styryl)naphthalen-1(4H)-one [Compound 3g]” showed an IC50 [1, 5] greater than 20 µM.
“(E)-7,8-dimethoxy-2-[4-methoxy-2-(prop-2-yn-1-yloxy)styryl]chroman-4-one [Compound 3h]” was tested, and the IC50 [1, 5] was greater than 20 µM.
